ChEMBL document CHEMBL3885861, “Open TG-GATES”

Species on record: Rattus norvegicus
Experiment: Open TG-GATES - Regimen: Single
Assay type: toxicity, organism-based, Sprague-Dawley
Set-up: regimen Single, gender Male, age 6 weeks
Details: in vivo, po, 300 mg/kg, route gavage, dose level High; for APTT / Bas / Eos / Fbg / Hb / Ht / Lym / MCH / MCHC / MCV / Mono / Neu / PT / Plat / RBC / Ret / WBC: tissue Blood; for KIDNEY_L / KIDNEY_R / KIDNEY_TOTAL: tissue Kidney; for LIVER: tissue Liver; for A/G / ALP / ALT / AST / BUN / CRE / Ca / Cl / DBIL / GLC / IP / K / LDH / Na / PL / RALB / TBIL / TC / TG / TP / gamma-GTP: tissue Plasma

SMILES: Nc1ccc(Cc2ccc(N)cc2)cc1
- TERMINAL_BW (3 h): 208.2 g
- APTT (3 h): 15.8 s
- Bas (3 h): 0%
- Eos (3 h): 0.8%
- Fbg (3 h): 257.6 mg/dL
- Hb (3 h): 13.2 g/dL
- Ht (3 h): 38.1%
- Lym (3 h): 67.2%
- MCH (3 h): 22 pg
- MCHC (3 h): 34.5%
- MCV (3 h): 63.6 fL
- Mono (3 h): 6%
- Neu (3 h): 25.6%
- PT (3 h): 12.1 s
- Plat (3 h): 142.6 x10_4/uL
- RBC (3 h): 600 x10_4/ul
- Ret (3 h): 8.7%
- WBC (3 h): 64.7 x10_2/uL
- KIDNEY_L (3 h): 0.9 g
- KIDNEY_R (3 h): 0.9 g
- KIDNEY_TOTAL (3 h): 1.8 g
- LIVER (3 h): 9 g
- A/G (3 h): 0.8
- ALP (3 h): 1363.8 IU/L
- ALT (3 h): 64 IU/L
- AST (3 h): 137.4 IU/L
- BUN (3 h): 10.6 mg/dL
- CRE (3 h): 0.2 mg/dL
- Ca (3 h): 10.5 mg/dL
- Cl (3 h): 102 meq/L
- DBIL (3 h): 0.094 mg/dL
- GLC (3 h): 183.4 mg/dL
- IP (3 h): 9.4 mg/dL
- K (3 h): 4 meq/L
- LDH (3 h): 175.4 IU/L
- Na (3 h): 139.8 meq/L
- PL (3 h): 170.8 mg/dL
- RALB (3 h): 2.5 g/dL
- TBIL (3 h): 0.2 mg/dL
- TC (3 h): 81.4 mg/dL
- TG (3 h): 79 mg/dL
- TP (3 h): 5.4 g/dL
- gamma-GTP (3 h): 2.6 IU/L
- TERMINAL_BW (6 h): 207.7 g
- APTT (6 h): 15.1 s
- Bas (6 h): 0%
- Eos (6 h): 0.6%
- Fbg (6 h): 257.4 mg/dL
- Hb (6 h): 13.3 g/dL
- Ht (6 h): 38.2%
- Lym (6 h): 60.6%
- MCH (6 h): 21 pg
- MCHC (6 h): 34.8%
- MCV (6 h): 60.2 fL
- Mono (6 h): 3.4%
- Neu (6 h): 34.6%
- PT (6 h): 11.9 s
- Plat (6 h): 133.9 x10_4/uL
- RBC (6 h): 634.6 x10_4/ul
- Ret (6 h): 7.3%
- WBC (6 h): 78.7 x10_2/uL
- KIDNEY_L (6 h): 0.9 g
- KIDNEY_R (6 h): 0.9 g
- KIDNEY_TOTAL (6 h): 1.9 g
- LIVER (6 h): 8.9 g
- A/G (6 h): 0.8
- ALP (6 h): 1513.4 IU/L
- ALT (6 h): 67 IU/L
- AST (6 h): 168.6 IU/L
- BUN (6 h): 11.8 mg/dL
- CRE (6 h): 0.2 mg/dL
- Ca (6 h): 10.2 mg/dL
- Cl (6 h): 100.8 meq/L
- DBIL (6 h): 0.4 mg/dL
- GLC (6 h): 172.6 mg/dL
- IP (6 h): 9.1 mg/dL
- K (6 h): 4.2 meq/L
- LDH (6 h): 196.8 IU/L
- Na (6 h): 140.8 meq/L
- PL (6 h): 152.8 mg/dL
- RALB (6 h): 2.3 g/dL
- TBIL (6 h): 0.6 mg/dL
- TC (6 h): 79.8 mg/dL
- TG (6 h): 42.6 mg/dL
- TP (6 h): 5.1 g/dL
- gamma-GTP (6 h): 5 IU/L
- TERMINAL_BW (9 h): 208 g
- APTT (9 h): 13.8 s
- Bas (9 h): 0%
- Eos (9 h): 0.4%
- Fbg (9 h): 257 mg/dL
- Hb (9 h): 12.6 g/dL
- Ht (9 h): 35.8%
- Lym (9 h): 52.2%
- MCH (9 h): 21.1 pg
- MCHC (9 h): 35.1%
- MCV (9 h): 60.1 fL
- Mono (9 h): 3.6%
- Neu (9 h): 42.6%
- PT (9 h): 11.9 s
- Plat (9 h): 139.7 x10_4/uL
- RBC (9 h): 595.6 x10_4/ul
- Ret (9 h): 7.8%
- WBC (9 h): 85.3 x10_2/uL
- KIDNEY_L (9 h): 0.9 g
- KIDNEY_R (9 h): 0.9 g
- KIDNEY_TOTAL (9 h): 1.9 g
- LIVER (9 h): 8.6 g
- A/G (9 h): 0.8
- ALP (9 h): 1671 IU/L
- ALT (9 h): 132.8 IU/L
- AST (9 h): 365.6 IU/L
- BUN (9 h): 11.8 mg/dL
- CRE (9 h): 0.2 mg/dL
- Ca (9 h): 10.3 mg/dL
- Cl (9 h): 101.6 meq/L
- DBIL (9 h): 0.7 mg/dL
- GLC (9 h): 176.2 mg/dL
- IP (9 h): 9.2 mg/dL
- K (9 h): 4.3 meq/L
- LDH (9 h): 351 IU/L
- Na (9 h): 142 meq/L
- PL (9 h): 173 mg/dL
- RALB (9 h): 2.3 g/dL
- TBIL (9 h): 1 mg/dL
- TC (9 h): 85 mg/dL
- TG (9 h): 45.2 mg/dL
- TP (9 h): 5.1 g/dL
- gamma-GTP (9 h): 7.4 IU/L
- TERMINAL_BW (24 h): 197.2 g
- APTT (24 h): 16.2 s
- Bas (24 h): 0%
- Eos (24 h): 1%
- Fbg (24 h): 321.4 mg/dL
- Hb (24 h): 12 g/dL
- Ht (24 h): 33.2%
- Lym (24 h): 52.8%
- MCH (24 h): 21.6 pg
- MCHC (24 h): 36%
- MCV (24 h): 59.8 fL
- Mono (24 h): 6.2%
- Neu (24 h): 39%
- PT (24 h): 11.9 s
- Plat (24 h): 148.1 x10_4/uL
- RBC (24 h): 554.4 x10_4/ul
- Ret (24 h): 6%
- WBC (24 h): 157.9 x10_2/uL
- KIDNEY_L (24 h): 0.9 g
- KIDNEY_R (24 h): 0.9 g
- KIDNEY_TOTAL (24 h): 1.8 g
- LIVER (24 h): 7.5 g
- A/G (24 h): 0.8
- ALP (24 h): 3659.6 IU/L
- ALT (24 h): 566.8 IU/L
- AST (24 h): 1154.8 IU/L
- BUN (24 h): 12 mg/dL
- CRE (24 h): 0.2 mg/dL
- Ca (24 h): 11 mg/dL
- Cl (24 h): 102.6 meq/L
- DBIL (24 h): 2.2 mg/dL
- GLC (24 h): 145.6 mg/dL
- IP (24 h): 8.7 mg/dL
- K (24 h): 4 meq/L
- LDH (24 h): 788.8 IU/L
- Na (24 h): 144.2 meq/L
- PL (24 h): 346.4 mg/dL
- RALB (24 h): 2.4 g/dL
- TBIL (24 h): 3.2 mg/dL
- TC (24 h): 145.2 mg/dL
- TG (24 h): 133.6 mg/dL
- TP (24 h): 5.6 g/dL
- gamma-GTP (24 h): 8.4 IU/L
